# Measurements reported in patent USRE42890E1, “Furazanobenzimidazoles” (Basilea Pharmaceutica AG, priority 2003, dated 2011).
# pIC50: −log10 of the molar value.
# Tests used:
# Jily = assay: MTS proliferation assay, Jily; format: cell-based; settings: 72 h incubation, read-out: MTS proliferation assay IC 50 Jily
# Description: Cell lines are cultured in RPMI-1640 tissue culture medium containing either 5% or 10% fetal calf serum, 0.05 mM 2-mercaptoethanol, 2 mM glutamine and penicillin/streptomycin 50 μg/ml (complete medium) (Sigma, Buchs, Switzerland). General growth conditions are 37° C. and 7.5% CO2.
# The assay is performed in 96 well tissue culture plates. The cells (range: 1.5*10^3-10^4) are seeded out in 80 μl complete medium 24 h prior to compound treatment. The test compounds are added in 20 μl complete medium containing max 5% DMSO. The final compound concentrations in the assays are 10 μM, 3 μM, 1 μM and 0.3 μM, respectively. The assay plates are incubated for 72 h at culture conditions. The MTS reagent is prepared according to the manufacturer's protocol (Promega G1111). 20 μl MTS reagent are added to each well, the assay plates are quickly spun and incubated for another 3 h at culture conditions. Subsequently, the plates are shortly shaked and absorption measured with a microplate-reader at 492 nm.
# HT1080 = assay: MTS proliferation assay, HT1080; format: cell-based, human; settings: HT1080, 72 h incubation; read-out: MTS proliferation assay IC 50 HT1080
# How it was run: (§1)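 Human lines, EGFP-transfected or not, grow in RPMI-1640 plus 5% or 10% FCS and 2-mercaptoethanol. They receive test compound for 72 h at final concentrations of 10, 3, 1 and 0.3 μM, and MTS conversion is measured at 492 nm.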
# MRC5 = assay: MTS proliferation assay, MRC5; format: cell-based; settings: MRC5, 72 h incubation; read-out: MTS proliferation assay IC 50 MRC5
# How it was run: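 Seed cells in complete RPMI-1640 medium and allow 24 h attachment. Add compounds to final 10 μM, 3 μM, 1 μM or 0.3 μM and incubate 72 h at 37° C. Add MTS, incubate 3 h more, then measure absorption at 492 nm.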
# [1] = tested on: adherent cells or suspension cells; assay: Hoechst 33342 nuclear staining (fraction of apoptotic nuclei); format: cell-based; design: key: 0 relating to no activity; 1 relating to weak activity comprising less than 70% of the cells; score 2 relating to strong activity comprising more than 70% of the cells
# HeLa = assay: MTS proliferation assay, HeLa; format: cell-based, human; settings: 72 h incubation, read-out: MTS proliferation assay IC 50 HeLa
# How it was run: as §1
SMILES,pIC50 (HT1080),pIC50 (Jily),pIC50 (MRC5),"Hoechst 33342 nuclear staining score ([1]; H460, conc 0.01 μm)","Hoechst 33342 nuclear staining score ([1]; H460, conc 0.1 μm)","Hoechst 33342 nuclear staining score ([1]; H460, conc 1 μm)","Hoechst 33342 nuclear staining score ([1]; HeLa, conc 0.01 μm)","Hoechst 33342 nuclear staining score ([1]; HeLa, conc 0.1 μm)","Hoechst 33342 nuclear staining score ([1]; HeLa, conc 1 μm)","Hoechst 33342 nuclear staining score ([1]; Jily, conc 0.01 μm)","Hoechst 33342 nuclear staining score ([1]; Jily, conc 0.1 μm)","Hoechst 33342 nuclear staining score ([1]; Jily, conc 1 μm)","Hoechst 33342 nuclear staining score ([1]; Jurkat, conc 0.01 μm)","Hoechst 33342 nuclear staining score ([1]; Jurkat, conc 0.1 μm)","Hoechst 33342 nuclear staining score ([1]; Jurkat, conc 1 μm)","Hoechst 33342 nuclear staining score ([1]; MRC5, conc 0.01 μm)","Hoechst 33342 nuclear staining score ([1]; MRC5, conc 0.1 μm)","Hoechst 33342 nuclear staining score ([1]; MRC5, conc 1 μm)","Hoechst 33342 nuclear staining score ([1]; PBLs, conc 0.01 μm)","Hoechst 33342 nuclear staining score ([1]; PBLs, conc 0.1 μm)",other results
CCc1ccc(C(=O)Cn2c(-c3nonc3NCCC#N)nc3ccccc32)cc1 [Example 56],7.00 to 8.00,7.00 to 8.00,7.00 to 8.00,0,0,2 (score 2 relating to strong activity comprising more than 70% of the cells),0,1 (1 relating to weak activity comprising less than 70% of the cells),2 (score 2 relating to strong activity comprising more than 70% of the cells),0,2 (score 2 relating to strong activity comprising more than 70% of the cells),2 (score 2 relating to strong activity comprising more than 70% of the cells),0,2 (score 2 relating to strong activity comprising more than 70% of the cells),2 (score 2 relating to strong activity comprising more than 70% of the cells),0,1 (1 relating to weak activity comprising less than 70% of the cells),1 (1 relating to weak activity comprising less than 70% of the cells),0,0,"Hoechst 33342 nuclear staining score ([1]; PBLs, conc 1 μm): 0; pIC50 (HeLa): 7.00 to 8.00"
Cc1ccc(C(=O)Cn2c(-c3nonc3NCCC#N)nc3ccccc32)cc1C [Example 54],7.00 to 8.00,7.00 to 8.00,7.00 to 8.00,0,2 (score 2 relating to strong activity comprising more than 70% of the cells),2 (score 2 relating to strong activity comprising more than 70% of the cells),0,2 (score 2 relating to strong activity comprising more than 70% of the cells),2 (score 2 relating to strong activity comprising more than 70% of the cells),1 (1 relating to weak activity comprising less than 70% of the cells),2 (score 2 relating to strong activity comprising more than 70% of the cells),2 (score 2 relating to strong activity comprising more than 70% of the cells),1 (1 relating to weak activity comprising less than 70% of the cells),2 (score 2 relating to strong activity comprising more than 70% of the cells),2 (score 2 relating to strong activity comprising more than 70% of the cells),0,2 (score 2 relating to strong activity comprising more than 70% of the cells),2 (score 2 relating to strong activity comprising more than 70% of the cells),0,0,"Hoechst 33342 nuclear staining score ([1]; PBLs, conc 1 μm): 0; pIC50 (HeLa): 7.00 to 8.00"
Nc1nonc1-c1nc2ccccc2n1CC(=O)c1cc(F)ccc1F [Example 71],< 6.00,6.00 to 7.00,< 6.00,0,0,0,0,0,0,0,0,1 (1 relating to weak activity comprising less than 70% of the cells),0,0,2 (score 2 relating to strong activity comprising more than 70% of the cells),0,0,0,0,0,"Hoechst 33342 nuclear staining score ([1]; PBLs, conc 1 μm): 0; pIC50 (HeLa): 6.00 to 7.00"

# More lines, main results first:
pIC50 (HT1080),SMILES,pIC50 (Jily),pIC50 (MRC5),"Hoechst 33342 nuclear staining score ([1]; H460, conc 0.01 μm)","Hoechst 33342 nuclear staining score ([1]; H460, conc 0.1 μm)","Hoechst 33342 nuclear staining score ([1]; H460, conc 1 μm)","Hoechst 33342 nuclear staining score ([1]; HeLa, conc 0.01 μm)","Hoechst 33342 nuclear staining score ([1]; HeLa, conc 0.1 μm)","Hoechst 33342 nuclear staining score ([1]; HeLa, conc 1 μm)","Hoechst 33342 nuclear staining score ([1]; Jily, conc 0.01 μm)","Hoechst 33342 nuclear staining score ([1]; Jily, conc 0.1 μm)","Hoechst 33342 nuclear staining score ([1]; Jily, conc 1 μm)","Hoechst 33342 nuclear staining score ([1]; Jurkat, conc 0.01 μm)","Hoechst 33342 nuclear staining score ([1]; Jurkat, conc 0.1 μm)","Hoechst 33342 nuclear staining score ([1]; Jurkat, conc 1 μm)","Hoechst 33342 nuclear staining score ([1]; MRC5, conc 0.01 μm)","Hoechst 33342 nuclear staining score ([1]; MRC5, conc 0.1 μm)","Hoechst 33342 nuclear staining score ([1]; MRC5, conc 1 μm)","Hoechst 33342 nuclear staining score ([1]; PBLs, conc 0.01 μm)","Hoechst 33342 nuclear staining score ([1]; PBLs, conc 0.1 μm)",other results
6.00 to 7.00,CCc1ccc(C(=O)Cn2c(-c3nonc3N)nc3ccccc32)cc1 [Example 55],7.00 to 8.00,6.00 to 7.00,0,0,2 (score 2 relating to strong activity comprising more than 70% of the cells),0,0,2 (score 2 relating to strong activity comprising more than 70% of the cells),0,0,2 (score 2 relating to strong activity comprising more than 70% of the cells),0,1 (1 relating to weak activity comprising less than 70% of the cells),2 (score 2 relating to strong activity comprising more than 70% of the cells),0,0,0,0,0,"Hoechst 33342 nuclear staining score ([1]; PBLs, conc 1 μm): 0; pIC50 (HeLa): 6.00 to 7.00"
7.00 to 8.00,Cc1ccc(OCn2c(-c3nonc3N)nc3ccccc32)cc1C [Example 101],7.00 to 8.00,7.00 to 8.00,0,1 (1 relating to weak activity comprising less than 70% of the cells),2 (score 2 relating to strong activity comprising more than 70% of the cells),0,1 (1 relating to weak activity comprising less than 70% of the cells),2 (score 2 relating to strong activity comprising more than 70% of the cells),0,1 (1 relating to weak activity comprising less than 70% of the cells),2 (score 2 relating to strong activity comprising more than 70% of the cells),0,2 (score 2 relating to strong activity comprising more than 70% of the cells),2 (score 2 relating to strong activity comprising more than 70% of the cells),0,1 (1 relating to weak activity comprising less than 70% of the cells),1 (1 relating to weak activity comprising less than 70% of the cells),0,0,"Hoechst 33342 nuclear staining score ([1]; PBLs, conc 1 μm): 0; pIC50 (HeLa): 7.00 to 8.00"
6.00 to 7.00,Nc1nonc1-c1nc2ccccc2n1COc1cccc(C(F)(F)F)c1 [Example 103],7.00 to 8.00,6.00 to 7.00,0,0,2 (score 2 relating to strong activity comprising more than 70% of the cells),0,0,2 (score 2 relating to strong activity comprising more than 70% of the cells),0,0,2 (score 2 relating to strong activity comprising more than 70% of the cells),0,1 (1 relating to weak activity comprising less than 70% of the cells),2 (score 2 relating to strong activity comprising more than 70% of the cells),0,0,1 (1 relating to weak activity comprising less than 70% of the cells),0,0,"Hoechst 33342 nuclear staining score ([1]; PBLs, conc 1 μm): 0; pIC50 (HeLa): 6.00 to 7.00"
